Test [1] addresses T1, L-lysine-epsilon aminotransferase (Mycobacterium tuberculosis) (UniProt P9WQ77).
T1 sequence (whole entry): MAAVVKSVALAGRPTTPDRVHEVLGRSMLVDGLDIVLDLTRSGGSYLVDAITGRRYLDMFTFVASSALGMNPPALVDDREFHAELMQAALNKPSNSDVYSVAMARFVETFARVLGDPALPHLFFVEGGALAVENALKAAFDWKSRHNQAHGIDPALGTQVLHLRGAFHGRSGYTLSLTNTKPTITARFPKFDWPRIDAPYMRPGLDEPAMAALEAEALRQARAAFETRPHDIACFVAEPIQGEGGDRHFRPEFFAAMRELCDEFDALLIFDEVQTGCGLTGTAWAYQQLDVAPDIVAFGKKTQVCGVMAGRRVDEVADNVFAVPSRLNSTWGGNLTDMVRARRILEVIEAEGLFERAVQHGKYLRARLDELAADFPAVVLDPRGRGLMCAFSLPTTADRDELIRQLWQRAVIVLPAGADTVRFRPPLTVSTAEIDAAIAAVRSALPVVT
Nature of the test: Inhibition of Mycobacterium tuberculosis lysine-epsilon aminotransferase at 400 uM.

The target of test [2] is T1, L-lysine-epsilon aminotransferase (Mycobacterium tuberculosis). Nature of the test: Inhibition of Mycobacterium tuberculosis lysine-epsilon aminotransferase at 600 uM.

The source made the active and inactive calls. The calls are words filed in the database; no cut-off is given here.

For orientation: inhibition means the percentage by which the read-out fell short of the control.

`CN(CC(O)c1ccccc1)CC1CCCCN1C` (configuration not stated): in test [1], the inhibition entry is “Active”.

Take `COc1ccc(CC(=O)NCC2c3[nH]c4ccccc4c3CC3C(=O)N(CCc4ccc(OC)c(OC)c4)C(=O)N32)cc1` (configuration not stated): in test [2], the inhibition stood at 60%.

Source of the values: ChEMBL document CHEMBL3045070, “Identification of in vitro inhibitors of Mycobacterium tuberculosis Lysine -aminotransferase by pharmacophore mapping and three-dimensional flexible searches” (Med Chem Res, 2008).
